For assay [1], the system named is Malassezia furfur (DSM 6170). Format: cell-based. To be noted: DSM 6170, 72 h. On the procedure:
Minimum inhibitory concentration of peptide P18 (P18 sequence H-KWKLFKKIPKFLHLAKKF-NH2 (Bachem AG, Switzerland)) based on Malassezia furfur (DSM 6170)
Growth medium M472 Pityrosporum medium according to DSMZ:
40 g of malt extract (Becton, Dickinson and Company, Sparks, USA) 20 g of ox bile (Merck, Darmstadt, Germany)
A shake culture containing M472 Pityrosporum medium was inoculated with M. furfur and incubated with shaking at 30° C. and 200 rpm overnight.
The suspension was adjusted to an optical density measured at 600 nm of 0.1. A 96-well microtiter plate was filled with 95 μl per well of the M. furfur suspension. Then a dilution series of the peptide with a final concentration in the wells between 0 and 1000 ppm was added. To this end, 5 μl per well of peptide solution with a concentration in the range from 0 ppm to 20 000 ppm were added to the M. furfur suspension, such that final concentrations of the peptide in the wells in the range between 0 ppm and 1000 ppm were obtained.
The microtiter plate was incubated at 30° C., 600 rpm. The fungal growth was assessed by measuring the optical density at 620 nm and observed over 72 hours. The experiments were conducted at least in double determination and independently repeated at least once.

For another assay, the system named is M. furfur (DSM 6170). The experiment in a line: P18 in pharmaceutical base formulation (CFU). Format: cell-based, Malassezia furfur. Conditions: for Colony forming units after the incubation time specified: 10 000 ppm in the formulation, mixed 1:9 with suspension. Here is the method:
The aim of the experiment was to study the effect of a pharmaceutical base formulation containing the P18 peptide ingredient (P18 sequence H-KWKLFKKIPKFLHLAKKF-NH2 (Bachem AG, Switzerland)) on further fungi and bacteria. For this purpose, the following base formulation was used: […]
1% hydroxycellulose 10% propylene glycol made up with water.
Based on the base formulation, formulations containing 10 000 ppm of P18 peptide were prepared from a 20% concentrate solution.
The effect of the formulations on S. epidermidis (DSM 1798), M. furfur (DSM 6170) and T. rubrum (DSM 21146) was studied.
M472 growth medium according to DSMZ for M. furfur 40 g of malt extract (Becton, Dickinson and Company, Sparks, USA) 20 g of ox bile (Merck, Darmstadt, Germany)
For M. furfur, 5 ml of medium were inoculated with the microorganism and incubated at 30° C. and 200 rpm overnight.
1.5 ml reaction vessels were each filled with 1 ml of medium and inoculated with the fungal or bacterial suspension from the overnight culture such that the resulting suspensions at the start of the experiment had been adjusted to an optical density, measured at 600 nm, of 0.1. The resulting suspension was mixed with the formulations in a ratio of 1:9 (formulation: microbial suspension). 1 μl of the culture was diluted with 20 μl of medium after 5 minutes and 60 minutes and then plated out. After incubation over 24 hours, the colonies on the plates were counted.

The values that follow come from patent publication US20120065126A1, “Pharmaceutical Compositions Containing Antifungal Peptides” (BASF SE, priority 2009, published 2012).

With “H-KWKLFKKIPKFLHLAKKF-NH2 [P18, H-KWKLFKKIPKFLHLAKKF-NH2]”, in assay [1], the Minimum inhibitory concentration amounted to 125 ppm. The “Colony forming units after the incubation time specified” value with M. furfur (DSM 6170) (5 minutes) worked out at 671 ± 13 CFU; with M. furfur (DSM 6170) (60 minutes), 2 ± 2 CFU. In the assay on M. furfur (DSM 6170) (treatment with a formulation which comprised P18, highest reduction of Example 22), the “Reduction in the cell count” value is over 300 fold.
